The values below are quoted from earlier work in paper PMC8654284 (Science Advances, 2021).

For data set [1], the system named is NK1R. To be noted: said to explain the insurmountable antagonism only in part.
In data set [2] the test system is NK1R.
The subject of data set [3] is NK1R. To be noted: clinically used NK1R antagonists.
In data set [4] the test system is NK1R. Particulars: NKA and NKB compared to SP.
Another data set concerns NK1R E172K. Particulars: NK1R E172 mutated to lysine as found in NK3R.
Where [5] appears, read: inhibition of receptor activation by SP.

Where two headings read alike, the source gives them in different places.

`Cc1ccccc1-c1cc(N2CCN(C)CC2)ncc1N(C)C(=O)C(C)(C)c1cc(C(F)(F)F)cc(C(F)(F)F)c1` [netupitant]: the dissociation kinetics entry in the data set with NK1R [1] is recorded as “slower dissociation kinetics”. Moreover, in the data set on NK1R [2] (setting [5]), the mode of antagonism entry was “pseudo-irreversible antagonists”. Moreover, the “in vivo efficacy (duration)” value with NK1R [3] is on record as “markedly prolonged in vivo efficacy”.

For the molecule `COc1ccccc1CN[C@H]1CCCN[C@H]1c1ccccc1` [CP-99,994], in the data set on NK1R [2] (compared to aprepitant and netupitant), the mode of antagonism result is recorded as “tight-binding, but surmountable”.

Regarding `C[C@@H](O[C@H]1OCCN(Cc2n[nH]c(=O)[nH]2)[C@H]1c1ccc(F)cc1)c1cc(C(F)(F)F)cc(C(F)(F)F)c1` [aprepitant], the dissociation kinetics entry in the data set with NK1R [1] is given as “slower dissociation kinetics”. The mode of antagonism result in the data set with NK1R [2] (setting [5]) is “pseudo-irreversible antagonists”. The “in vivo efficacy (duration)” value in the data set on NK1R [3] is on record as “markedly prolonged in vivo efficacy”.

neurokinin A [NKA]: the “affinity for NK1R” value with NK1R [4] is listed as “lower affinity compared to SP”.

In the case of neurokinin B [NKB], the “affinity of NKB at E172K mutant” value in the data set with NK1R E172K is “increases affinity”. In addition, the “affinity for NK1R” value in the data set with NK1R [4] was “lower affinity compared to SP”.
